Patent US5932555A (priority 1997, dated 1999)
≈ marks a conversion by molar mass, not a printed value. Like-named read-outs stand apart in the source and are kept apart here.

Columns and labels:
[1] = test system: rejection of the transplant; conditions: as an immunosuppressive agent, prior art; cited from earlier work
[2] = prior art, depending on case; cited from earlier work
P388 [3] = test: Cytotoxicity test on cultured tumor cell line P388 (MTT, 72 h); assay type: cell-based; conditions: Mus musculus, P388, 72 h, read-out: IC50 (growth inhibition)
Experimental: (§1) Cultured tumor cell lines P388 and P388/ADR were suspended in RPMI1640 medium containing 10% heat inactivated fetal calf serum (FCS) and 20 μM 2-mercaptoethanol whereby a cell suspension (5×10^4 cells/ml) was prepared.
72 hours thereafter, cell growth was measured by a calorimetric assay method using 3-(4,5-dimethyl-2-thiazolyl)-2,5-diphenyl-2H-tetrazolium bromide (MTT) as follows: 20 μl of 2 mg/ml MTT solution was added to each well and the cells were incubated for 4 hours at 37° C. Thereafter, 50 μl of 50% dimethylformamide solution containing 20% sodium dodecyl sulfate was added to each well and allowed to stand, so that the formed violet formazan crystal was dissolved, and its absorbance at 570 nm was measured in a microplate absorbance photometer (Immunoreader) and used as an indicator of the growth.
(§2) Degree of inhibition=[1-(absorbance in presence of sample)/(absorbance in
(§3) absence of sample)]×100 (1)

[4] = test system: adriamycin-resistant P388; test: Cytotoxicity test on adriamycin-resistant P388 (P388/ADR) (MTT, 72 h); assay type: cell-based; conditions: Mus musculus, P388, 72 h, read-out: IC50 (growth inhibition)
Experimental: as §1
A sample examined was dissolved in methanol, then diluted with RPMI 1640 medium and subjected to serial 2-fold dilution starting at the concentration of 0.1 mg/ml. 180 μl of the cell suspension and 20 μl of the sample solution were added into a 96-well micro-titer plate and incubated at 37° C. in wet 5% CO2 gas/95% air. 72 hours thereafter, cell growth was measured by a calorimetric assay method using 3-(4,5-dimethyl-2-thiazolyl)-2,5-diphenyl-2H-tetrazolium bromide (MTT) as follows: 20 μl of 2 mg/ml MTT solution was added to each well and the cells were incubated for 4 hours at 37° C. Thereafter, 50 μl of 50% dimethylformamide solution containing 20% sodium dodecyl sulfate was added to each well and allowed to stand, so that the formed violet formazan crystal was dissolved, and its absorbance at 570 nm was measured in a microplate absorbance photometer (Immunoreader) and used as an indicator of the growth. The result was expressed in terms of the concentration of a sample at which growth was inhibited by 50% (IC50), which was determined from the relationship between sample concentrations and degrees of inhibition calculated using the following equation (1):
as §2, §3

P388 [5] = test: Mouse in vivo antitumor test, P388 transplanted
Experimental: (§4) 2×10^5 cells of P388 or P388/ADR were inoculated intraperitoneally into each of CDF1 mice (male, each weighing 20 g, 10 animals/group), and from the next day, the test solution was administered at 10, 5, and 1 mg/kg body weight/day respectively by intraperitoneal injection of 200 μl sample at each concentration once a day for 10 successive days. The numbers with time of mice which survived after administration was counted and the average survival days and T/C (survival days of treated mice/survival days of control mice) were calculated. The average body weights after 10 days were also measured.

P388/ADR = test: Mouse in vivo antitumor test, P388/ADR transplanted
Experimental: as §4

[6] = Repeated administration toxicity test (intraperitoneal); assay type: in vivo, mouse (CDF1); conditions: mouse, in vivo, ip, read-out: Fatality rate
Experimental: (§5) As the comparative control, test solutions of adriamycin were prepared in the same manner. […] The number with time of survived animals after administration and the average body weights on Days 0, 5, and 10 were determined.

CDF1 mice = test: as above; assay type: in vivo, mouse (CDF1); conditions: for Body weight, Day 0: Day 0 (baseline); for Number of survived animals, Day 4 / Number of survived animals, Day 5 / Number of survived animals, Day 6 / Number of survived animals, Day 7 / Number of survived animals, Day 8 / Number of survived animals, Day 10: of 10
Experimental: as §5

[7] = P388, 1 mg/kg/day i.p. × 10 days
[8] = P388, 5 mg/kg/day i.p. × 10 days
[9] = P388, 10 mg/kg/day i.p. × 10 days
[10] = P388/ADR, 1 mg/kg/day i.p. × 10 days
[11] = P388/ADR, 5 mg/kg/day i.p. × 10 days
[12] = P388/ADR, 10 mg/kg/day i.p. × 10 days

In the case of `C=CC[C@@H]1/C=C(\C)C[C@H](C)C[C@H](OC)[C@H]2O[C@@](O)(C(=O)C(=O)N3CCCC[C@H]3C(=O)O[C@H](/C(C)=C/[C@@H]3CC[C@@H](O)[C@H](OC)C3)[C@H](C)[C@@H](O)CC1=O)[C@H](C)C[C@@H]2OC` [tacrorims (FK506)], the immunosuppressive results [1] is given as “preferable results” and the side effects [2] is given as “obstacles to the pancreas and kidney”.

For `COc1cccc2c1C(=O)c1c(O)c3c(c(O)c1C2=O)C[C@@](O)(C(=O)CO)C[C@@H]3O[C@H]1C[C@H](N)[C@H](O)[C@H](C)O1` [Adriamycin], the IC50 (P388 [3]) was 0.027 µg/mL (≈ 0.0497 µM), the IC50 [4] was 0.53 µg/mL (≈ 0.975 µM) and the T/C (P388 [5]; [7]) was 120%. For the same molecule, the average survival days (P388 [5]; [7]) was 12.4 days, the T/C (P388 [5]; [8]) was 81% and the average survival days (P388 [5]; [8]) was 8.4 days. For the same molecule, the T/C (P388 [5]; [9]) was 76%, the average survival days (P388 [5]; [9]) was 7.8 days and the “therapeutic effect (improvement in survival rate)” value (P388 [5]; P388-transplanted mice, adriamycin 1 mg/kg/day vs 0406TP-1) was “same degree of therapeutic effect”. The “therapeutic effect at high dosage” value (P388 [5]; more than 5 mg/kg body weight/day, due to its toxicity) was “did not show therapeutic effect”, the T/C (P388/ADR; [10]) was 96% and the “average body weight after 10 days” value (P388/ADR; [10]) was 23.5 g. For the same molecule, the average survival days (P388/ADR; [10]) was 10.7 days, the T/C (P388/ADR; [11]) was 63% and the average survival days (P388/ADR; [11]) was 7.0 days. The T/C (P388/ADR; [12]) was 68%, the average survival days (P388/ADR; [12]) was 7.5 days and the therapeutic effect (P388/ADR; P388/ADR-transplanted mice) was “did not show therapeutic effect”. The mortality ([6]; 1 mg/kg/day i.p. × 10 days) was 0%, the mortality ([6]; 5 mg/kg/day i.p. × 10 days) was 70% and the mortality ([6]; 10 mg/kg/day i.p. × 10 days) was 100%. The “Body weight, Day 0” value (CDF1 mice; 1 mg/kg/day i.p. group) was 21.9 g, the “Number of survived animals, Day 4” value (CDF1 mice; 1 mg/kg/day i.p. × 10 days) was 10 and the “Number of survived animals, Day 5” value (CDF1 mice; 1 mg/kg/day i.p. × 10 days) was 10. For the same molecule, the “Number of survived animals, Day 6” value (CDF1 mice; 1 mg/kg/day i.p. × 10 days) was 10, the “Number of survived animals, Day 7” value (CDF1 mice; 1 mg/kg/day i.p. × 10 days) was 10 and the “Number of survived animals, Day 8” value (CDF1 mice; 1 mg/kg/day i.p. × 10 days) was 10. The “Number of survived animals, Day 10” value (CDF1 mice; 1 mg/kg/day i.p. × 10 days) was 10, the “Body weight, Day 5” value (CDF1 mice; 1 mg/kg/day i.p.) was 23.5 g and the “Body weight, Day 10” value (CDF1 mice; 1 mg/kg/day i.p.) was 24.5 g. The “Body weight, Day 0” value (CDF1 mice; 5 mg/kg/day i.p. group) was 21.6 g, the “Number of survived animals, Day 4” value (CDF1 mice; 5 mg/kg/day i.p. × 10 days) was 10 and the “Number of survived animals, Day 5” value (CDF1 mice; 5 mg/kg/day i.p. × 10 days) was 9. For the same molecule, the “Number of survived animals, Day 6” value (CDF1 mice; 5 mg/kg/day i.p. × 10 days) was 9, the “Number of survived animals, Day 7” value (CDF1 mice; 5 mg/kg/day i.p. × 10 days) was 8 and the “Number of survived animals, Day 8” value (CDF1 mice; 5 mg/kg/day i.p. × 10 days) was 3. The “Number of survived animals, Day 10” value (CDF1 mice; 5 mg/kg/day i.p. × 10 days) was 3, the “Body weight, Day 5” value (CDF1 mice; 5 mg/kg/day i.p.) was 21.0 g and the “Body weight, Day 10” value (CDF1 mice; 5 mg/kg/day i.p.) was 15.8 g. The “Body weight, Day 0” value (CDF1 mice; 10 mg/kg/day i.p. group) was 21.8 g, the “Number of survived animals, Day 4” value (CDF1 mice; 10 mg/kg/day i.p. × 10 days) was 10 and the “Number of survived animals, Day 5” value (CDF1 mice; 10 mg/kg/day i.p. × 10 days) was 9. For the same molecule, the “Number of survived animals, Day 6” value (CDF1 mice; 10 mg/kg/day i.p. × 10 days) was 8, the “Number of survived animals, Day 7” value (CDF1 mice; 10 mg/kg/day i.p. × 10 days) was 3 and the “Number of survived animals, Day 8” value (CDF1 mice; 10 mg/kg/day i.p. × 10 days) was 0. For the same molecule, the “Number of survived animals, Day 10” value (CDF1 mice; 10 mg/kg/day i.p. × 10 days) was 0, the “Body weight, Day 5” value (CDF1 mice; 10 mg/kg/day i.p.) was 17.7 g and the “survival in repeated administration” value (CDF1 mice; i.p. 10 days, in words) was “some animals in the group given adriamycin died”. The “growth / body weight in repeated administration” value (CDF1 mice; i.p. 10 days, in words, vs control) was “growth was inferior to the control”.
